# Test results reported in US5593984A, “Cephalosporin derivatives” (Yuhan Corporation, priority 1992, dated 1997).
# Assays:
# Assay type in all cases: cell-based
# B. subtilis ATCC 6633 = experiment: MIC by agar dilution, B. subtilis ATCC 6633; details: Bacillus subtilis, ATCC6633, 17 h; B. subtilis ATCC 6633; agar dilution, Mueller-Hinton agar; read-out: Minimal Inhibitory Concentration (MIC)
# Summary of the method: (§1)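 Following inoculation at 10^6 CFU per ml onto agar containing two-fold compound dilutions, plates were incubated 17±1 hours at 35°-37° C.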
# Staph. aureus ATCC 6538P = experiment: MIC by agar dilution, Staph. aureus ATCC 6538P; details: Staphylococcus aureus, ATCC6538P, 17 h; Staph. aureus ATCC 6538P; agar dilution, Mueller-Hinton agar; read-out: Minimal Inhibitory Concentration (MIC)
# Summary of the method: as §1
# Staph. aureus Smith = experiment: MIC by agar dilution, Staph. aureus Smith; details: Staphylococcus aureus, 17 h, Mueller-Hinton agar, read-out: Minimal Inhibitory Concentration (MIC)
# Summary of the method: as §1
# Staph. aureus C-57 = experiment: MIC by agar dilution, Staph. aureus C-57; details: Staphylococcus aureus, C57, 17 h, Mueller-Hinton agar, read-out: Minimal Inhibitory Concentration (MIC)
# Summary of the method: as §1
# Staph. aureus C-5113 = experiment: MIC by agar dilution, Staph. aureus C-5113; details: Staphylococcus aureus, C5113, 17 h, Mueller-Hinton agar, read-out: Minimal Inhibitory Concentration (MIC)
# Summary of the method: as §1
# Staph. aureus C-5216 = experiment: MIC by agar dilution, Staph. aureus C-5216; details: Staphylococcus aureus, C5216, 17 h, Mueller-Hinton agar, read-out: Minimal Inhibitory Concentration (MIC)
# Summary of the method: as §1
# [1] = test system: S. epidermidis ATCC 12228; experiment: MIC by agar dilution, S. epidermidis ATCC 12228; details: Staphylococcus epidermidis, ATCC12228, 17 h; S. epidermidis ATCC 12228; agar dilution, Mueller-Hinton agar; read-out: Minimal Inhibitory Concentration (MIC)
# Summary of the method: as §1
# Ent. aerogenes IFO 12979 = experiment: MIC by agar dilution, Ent. aerogenes IFO 12979; details: Klebsiella aerogenes, IFO12979, 17 h, Mueller-Hinton agar, read-out: Minimal Inhibitory Concentration (MIC)
# Summary of the method: as §1
# Ent. cloacae IFO 13535 = experiment: MIC by agar dilution, Ent. cloacae IFO 13535; details: Enterobacter cloacae, IFO13535, 17 h; Ent. cloacae IFO 13535; agar dilution, Mueller-Hinton agar; read-out: Minimal Inhibitory Concentration (MIC)
# Summary of the method: as §1
# E. coli NIHJ JC-2 = experiment: MIC by agar dilution, E. coli NIHJ JC-2; details: Escherichia coli, NIHJJC2, 17 h; E. coli NIHJ JC-2; agar dilution, Mueller-Hinton agar; read-out: Minimal Inhibitory Concentration (MIC)
# Summary of the method: as §1
# E. coli No. 29 = experiment: MIC by agar dilution, E. coli No. 29; details: Escherichia coli, 17 h; E. coli No. 29; agar dilution, Mueller-Hinton agar; read-out: Minimal Inhibitory Concentration (MIC)
# Summary of the method: as §1
# E. coli DY-1 = experiment: MIC by agar dilution, E. coli DY-1; details: Escherichia coli, DY1, 17 h; E. coli DY-1; agar dilution, Mueller-Hinton agar; read-out: Minimal Inhibitory Concentration (MIC)
# Summary of the method: as §1
# K. pneumoniae NCTC 9632 = experiment: MIC by agar dilution, K. pneumoniae NCTC 9632; details: Klebsiella pneumoniae, NCTC9632, 17 h; K. pneumoniae NCTC 9632; agar dilution, Mueller-Hinton agar; read-out: Minimal Inhibitory Concentration (MIC)
# Summary of the method: as §1
# M. morganii DY-1 = experiment: MIC by agar dilution, M. morganii DY-1; details: Morganella morganii, DY1, 17 h; M. morganii DY-1; agar dilution, Mueller-Hinton agar; read-out: Minimal Inhibitory Concentration (MIC)
# Summary of the method: as §1
# [2] = test system: Ps. aeruginosa ATCC 10145; experiment: MIC by agar dilution, Ps. aeruginosa ATCC 10145; details: Pseudomonas aeruginosa, ATCC10145, 17 h, Mueller-Hinton agar, read-out: Minimal Inhibitory Concentration (MIC)
# Summary of the method: as §1
# [3] = test system: Ps. aeruginosa NCTC 10490; experiment: MIC by agar dilution, Ps. aeruginosa NCTC 10490; details: Pseudomonas aeruginosa, NCTC10490, 17 h, Mueller-Hinton agar, read-out: Minimal Inhibitory Concentration (MIC)
# Summary of the method: as §1
# Ps. aeruginosa DY-2 = experiment: MIC by agar dilution, Ps. aeruginosa DY-2; details: Pseudomonas aeruginosa, DY2, 17 h; Ps. aeruginosa DY-2; agar dilution, Mueller-Hinton agar; read-out: Minimal Inhibitory Concentration (MIC)
# Summary of the method: as §1
# P. vulgaris NCTC 8313 = experiment: MIC by agar dilution, P. vulgaris NCTC 8313; details: Proteus vulgaris, NCTC8313, 17 h; P. vulgaris NCTC 8313; agar dilution, Mueller-Hinton agar; read-out: Minimal Inhibitory Concentration (MIC)
# Summary of the method: as §1
# Prov. stuartii IFO 12930 = experiment: MIC by agar dilution, Prov. stuartii IFO 12930; details: Providencia stuartii, IFO12930, 17 h, Mueller-Hinton agar, read-out: Minimal Inhibitory Concentration (MIC)
# Summary of the method: as §1
# [4] = test system: Ser. marcescens IFO 12648; experiment: MIC by agar dilution, Ser. marcescens IFO 12648; details: Serratia marcescens, IFO12648, 17 h; Ser. marcescens IFO 12648; agar dilution, Mueller-Hinton agar; read-out: Minimal Inhibitory Concentration (MIC)
# Summary of the method: as §1
MIC (B. subtilis ATCC 6633),MIC (Staph. aureus ATCC 6538P),MIC (Staph. aureus Smith),MIC (Staph. aureus C-57),MIC (Staph. aureus C-5113),MIC (Staph. aureus C-5216),MIC [1],MIC (Ent. aerogenes IFO 12979),MIC (Ent. cloacae IFO 13535),MIC (E. coli NIHJ JC-2),MIC (E. coli No. 29),MIC (E. coli DY-1),MIC (K. pneumoniae NCTC 9632),MIC (M. morganii DY-1),MIC [2],MIC [3],MIC (Ps. aeruginosa DY-2),MIC (P. vulgaris NCTC 8313),MIC (Prov. stuartii IFO 12930),MIC [4],SMILES
0.05 µg/mL,0.2 µg/mL,0.78 µg/mL,25 µg/mL,0.78 µg/mL,0.78 µg/mL,0.05 µg/mL,≤ 0.006 µg/mL,0.012 µg/mL,≤ 0.006 µg/mL,≤ 0.006 µg/mL,≤ 0.006 µg/mL,≤ 0.006 µg/mL,≤ 0.006 µg/mL,0.78 µg/mL,0.2 µg/mL,6.25 µg/mL,≤ 0.006 µg/mL,≤ 0.006 µg/mL,≤ 0.006 µg/mL,"NCCSc1ccc2c[n+](CC3=C(C(=O)[O-])N4C(=O)C(NC(=O)C(=NOCF)c5csc(N)n5)C4SC3)ccn12 (stereo not drawn) [Ex. 29, 7-β-[(Z)-2-(2-aminothiazol-4-yl)2-fluoromethoxyiminoacetamido]-3-[6-(2-aminoethylthio)pyrrolo[1,2-a]pyrazinium-2-yl]methyl-3-cephem-4-carboxylat]"
0.1 µg/mL,0.2 µg/mL,0.39 µg/mL,1.56 µg/mL,0.39 µg/mL,0.78 µg/mL,0.012 µg/mL,0.05 µg/mL,0.39 µg/mL,0.1 µg/mL,0.025 µg/mL,≤ 0.006 µg/mL,0.1 µg/mL,0.1 µg/mL,1.56 µg/mL,0.2 µg/mL,3.13 µg/mL,0.025 µg/mL,≤ 0.006 µg/mL,0.1 µg/mL,"CO/N=C(\C(=O)N[C@@H]1C(=O)N2C(C(=O)[O-])=C(C[n+]3ccn4c(CO)ccc4c3)CS[C@H]12)c1nc(N)sc1Cl [Ex. 49, 7-β-[(Z)-2-(2-amino-5-chlorothiazol-4-yl)-2-methoxyiminoacetamido]-3-(6-hydroxymethylpyrrolo[1,2-a]-pyrazinium-2-yl)methyl-3-cephem-4-carboxylate]"
1.56 µg/mL,0.39 µg/mL,3.13 µg/mL,100 µg/mL,1.56 µg/mL,6.25 µg/mL,0.39 µg/mL,0.2 µg/mL,6.25 µg/mL,3.13 µg/mL,1.56 µg/mL,0.78 µg/mL,0.78 µg/mL,0.78 µg/mL,12.5 µg/mL,6.25 µg/mL,25 µg/mL,0.05 µg/mL,0.39 µg/mL,0.39 µg/mL,"CC(C)(ON=C(C(=O)NC1C(=O)N2C(C(=O)[O-])=C(C[n+]3ccn4c(CO)ccc4c3)CSC12)c1csc(N)n1)C(=O)O (stereo not drawn) [Ex. 24, 7-β-[(Z)-2-(2-aminothiazol-4-yl)-2-(2-carboxyprop-2-oxyimino)acetamido]-3-(6hydroxymethylpyrrolo[1,2-a]pyrazinium-2-yl)methyl-3-cephem-4-carboxylate]"
0.2 µg/mL,0.78 µg/mL,3.13 µg/mL,25 µg/mL,3.13 µg/mL,3.13 µg/mL,3.39 µg/mL,0.025 µg/mL,0.1 µg/mL,0.025 µg/mL,0.05 µg/mL,0.025 µg/mL,0.025 µg/mL,0.05 µg/mL,0.78 µg/mL,0.78 µg/mL,6.25 µg/mL,0.1 µg/mL,0.025 µg/mL,0.05 µg/mL,"CO/N=C(\C(=O)N[C@@H]1C(=O)N2C(C(=O)[O-])=C(C[n+]3ccn4c(SCCO)ccc4c3)CS[C@H]12)c1nsc(N)n1 [Ex. 53, 7-β-[(Z)-2-(5-amino-1,2,4-thiadiazol-3-yl)-2-methoxyiminoacetamido]-3-[6-(2-hydroxyethylthio)pyrrolo[1,2-a]-pyrazinium-2-yl]methyl-3-cephem-4-carboxylate]"
